Molecules are shown by their SMILES.

In this test the target is hENPP2 (Homo sapiens, UniProt Q13822). Briefly: Human ENPP2 (hENPP2) biochemical assay using LPC as substrate. The note with it: 150 µM LPC (palmitoyl 16:0), 37°C for 30 min. The method, then: The principle of the assay conswasts in quantifying the released choline with an enzymatic method using choline oxidase and peroxidase. Choline oxydation by choline oxydase releases betaine and peroxide. The latter was quantified in presence of HRP that converts the peroxide detection agent TOOS (CAS# 82692-93-1) and 4-aminoantipyrine into quinoneimine dye. The appearance of quinoneimine dye was measured spectrophotometrically at 555 nm and was proportional to the amount of choline released by ENPP2. Inhibition of ENPP2 results in a decrease of the signal.
Compound IC50 values were determined in a hENPP2 (UniProtKB/SwwassProt Sequence ref Q13822) biochemical assay using LPC as substrate.
5 µL of a dilution series of compound, starting from 50 µM highest concentration, 1/3 dilution, was added to the wells. hENPP2 was used at a final concentration of 1 µg/mL or 3 µg/mL (it will be appreciated by the skilled person that the potency read out was independent of the enzyme concentration). The enzyme was diluted in 50 mM Trwas-HCl pH 8.5, 500 mM NaCl, 5 mM KCl, 10 mM CaCl2, 0.1% fatty acid free BSA in a total volume of 10 µL. The reaction was started by the addition of 10 µL of 150 µM LPC (palmitoyl 16:0; Avanti Polar Lipids, Inc., Cat# 855675) diluted in the same buffer as described above and the mixture was incubated at 37°C for 30 min. The reaction was terminated and choline quantified by the addition of a 25 µL of a mixture containing 0.6 U/mL of choline oxidase, 0.6 U/mL of peroxydase, 1.8 mM TOOS, 1.2 mM amino-antipyrine, 20 mM EGTA (stop-developer solution) diluted in the buffer described above. […] was read on an Envision plate reader (PerkinElmer, Inc.) after an incubation of 30 min at room temperature (excitation 555 nm).
What is called IC50 is the concentration at which inhibition is half-maximal. Lower therefore signals inhibition by little substance. For the compound `Cc1cc(C)cc(Nc2ncc3c(n2)CN(C2CCN(C(=O)c4ccc5[nH]nnc5c4)C(C)(C)C2)C3)c1` (stereo not shown) [Cpd 100, 1H-benzotriazol-5-yl-[4-[2-(3,5-dimethylanilino)-5,7-dihydropyrrolo[3,4-d]pyrimidin-6-yl]-2,2-dimethyl-1-piperidyl]methanone], the IC50 lay within 0.01 to 100 nM.

In the case of `Cc1cc(C)cc(Nc2ncc3c(n2)CN(C2CN(C(=O)c4ccc5[nH]nnc5c4)CC2(F)F)C3)c1` (stereo not shown) [Cpd 101, 1H-benzotriazol-5-yl-[4-[2-(3,5-dimethylanilino)-5,7-dihydropyrrolo[3,4-d]pyrimidin-6-yl]-3,3-difluoro-pyrrolidin-1-yl]methanone], the IC50 is 100 to 500 nM.

Consider `COC(=O)[C@@H]1C[C@H](N2Cc3cnc(Nc4cc(C)cc(C)c4)nc3C2)CCN1C(=O)c1ccc2[nH]nnc2c1` [Cpd 104, methyl (2S,4R)-1-(1H-benzotriazole-5-carbonyl)-4-[2-(3,5-dimethylanilino)-5,7-dihydropyrrolo[3,4-d]pyrimidin-6-yl]pipe ridine-2-carboxylate], for which the concentration for half-maximal inhibition (IC50) lay within 0.01 to 100 nM.

`Cc1cc(C)cc(Nc2ncc3c(n2)CN(C2CCN(C(=O)c4ccc5[nH]cnc5c4)CC2)C3)c1` [Cpd 108, 1H-benzimidazol-5-yl-[4-[2-(3,5-dimethylanilino)-5,7-dihydropyrrolo[3,4-d]pyrimidin-6-yl]-1-piperidyl]methanone] displayed an IC50 of 500 to 1000 nM.

Regarding `Cc1cc(C)cc(Nc2ncc3c(n2)CN(C2CCN(C(=O)c4cc5nn[nH]c5cc4F)C(C)(C)C2)C3)c1` (stereo not shown) [Cpd 117, [4-[2-(3,5-dimethylanilino)-5,7-dihydropyrrolo[3,4-d]pyrimidin-6-yl]-2,2-dimethyl-1-piperidyl]-(6-fluoro-1H-benzotriazol-5-yl)methanone], the IC50 lay in the range of 0.01 to 100 nM.

The compound `Cc1cc(C)cc(Nc2ncc3c(n2)CN(C2CCN(C(=O)c4ccc5oc(=O)[nH]c5c4)CC2)C3)c1` [Cpd 118, 5-[4-[2-(3,5-dimethylanilino)-5,7-dihydropyrrolo[3,4-d]pyrimidin-6-yl]piperidine-1-carbonyl]-3H-1,3-benzoxazol-2-one] displayed an IC50 above 1000 nM.

On to `Cc1cc(C)cc(Nc2ncc3c(n2)CN([C@H]2CCN(C(=O)c4ccc(S(N)(=O)=O)cc4)[C@@H](C)C2)C3)c1` [Cpd 124, 4-[(2S,4S)-4-[2-(3,5-dimethylanilino)-5,7-dihydropyrrolo[3,4-d]pyrimidin-6-yl]-2-methyl-piperidine-1-carbonyl]benzenesulfonamide], for which the IC50 was above 1000 nM.

`COc1cc(C)cc(Nc2ncc3c(n2)CN([C@@H]2CCN(C(=O)c4ccc5[nH]nnc5c4)[C@H](C)C2)C3)c1` [Cpd 125, 1H-benzotriazol-5-yl-[(2R,4R)-4-[2-(3-methoxy-5-methyl-anilino)-5,7-dihydropyrrolo[3,4-d]pyrimidin-6-yl]-2-methyl-1-piperidyl]methanone] displayed a 50% inhibitory concentration (IC50) of 0.01 to 100 nM.

The compound `Cc1cc(C)cc(Nc2ncc3c(n2)CN(C2(C)CCN(C(=O)c4ccc5[nH]nnc5c4)CC2)C3)c1` [Cpd 130, 1H-benzotriazol-5-yl-[4-[2-(3,5-dimethylanilino)-5,7-dihydropyrrolo[3,4-d]pyrimidin-6-yl]-4-methyl-1-piperidyl]methanone] registered an IC50 of 0.01 to 100 nM.

In turn, `Cc1cc(C)cc(Nc2ncc3c(n2)CN([C@H]2CCN(C(=O)c4ccc(S(=O)(=O)NC(=O)C(C)C)cc4)[C@@H](C)C2)C3)c1` [Cpd 131, N-[4-[(2S,4S)-4-[2-(3,5-dimethylanilino)-5,7-dihydropyrrolo[3,4-d]pyrimidin-6-yl]-2-methyl-piperidine-1-carbonyl]phenyl]sulfonyl-2-methyl-propanamide] had an IC50 above 1000 nM.

Consider `Cc1cc(C)cc(Nc2ncc3c(n2)CN([C@H]2CCN(C(=O)c4ccc(C(=O)O)cc4)[C@@H](C)C2)C3)c1` [Cpd 132, 4-[(2S,4S)-4-[2-(3,5-dimethylanilino)-5,7-dihydropyrrolo[3,4-d]pyrimidin-6-yl]-2-methyl-piperidine-1-carbonyl]benzoic acid], for which the IC50 was above 1000 nM.

As to `Cc1cc(C)cc(Nc2ncc3c(n2)CN([C@H]2CCN(C(=O)c4ccc(C(=O)NS(C)(=O)=O)cc4)[C@@H](C)C2)C3)c1` [Cpd 133, 4-[(2S,4S)-4-[2-(3,5-dimethylanilino)-5,7-dihydropyrrolo[3,4-d]pyrimidin-6-yl]-2-methyl-piperidine-1-carbonyl]-N-methylsulfonylbenzamide], the IC50 is above 1000 nM.

Compound `Cc1cc(C)cc(Nc2ncc3c(n2)CCN(C2CCN(C(=O)c4ccc5[nH]nnc5c4)[C@@H](C)C2)CC3)c1` (stereo partly drawn) [Cpd 142, 1H-benzotriazol-5-yl-[(2S)-4-[2-(3,5-dimethylanilino)-5,6,8,9-tetrahydropyrimido[4,5-d]azepin-7-yl]-2-methyl-1-piperidyl]methanone] had an IC50 of 100 to 500 nM.

`Cc1cc(C)cc(Nc2ncc3c(n2)CN([C@@H]2CCN(C(=O)c4cccc(C(=O)O)c4)[C@H](C)C2)C3)c1` [Cpd 146, 3-[(2R,4R)-4-[2-(3,5-dimethylanilino)-5,7-dihydropyrrolo[3,4-d]pyrimidin-6-yl]-2-methyl-piperidine-1-carbonyl]benzoic acid] yielded an IC50 above 1000 nM.

With `Cc1cc(C)cc(Nc2ncc3c(n2)CN([C@@H]2CCN(C(=O)c4ccc(-c5nnn[nH]5)cc4)[C@H](C)C2)C3)c1` [Cpd 153, [(2R,4R)-4-[2-(3,5-dimethylanilino)-5,7-dihydropyrrolo[3,4-d]pyrimidin-6-yl]-2-methyl-1-piperidyl]-[4-(1H-tetrazol-5-yl)phenyl]methanone], the IC50 is above 1000 nM.

In the case of `Cc1cc(C)cc(Nc2ncc3c(n2)CCN(C2(C)CCN(C(=O)c4ccc5[nH]nnc5c4)CC2)C3)c1` [Cpd 158, 1H-benzotriazol-5-yl-[4-[2-(3,5-dimethylanilino)-7,8-dihydro-5H-pyrido[4,3-d]pyrimidin-6-yl]-4-methyl-1-piperidyl]methanone], the IC50 fell in the range of 0.01 to 100 nM.

`C[C@@H]1C[C@H](N2Cc3cnc(Nc4ccc(C#N)cc4)nc3C2)CCN1C(=O)c1ccc2[nH]nnc2c1` [Cpd 160, 4-[[6-[(2R,4R)-1-(1H-benzotriazole-5-carbonyl)-2-methyl-4-piperidyl]-5,7-dihydropyrrolo[3,4-d]pyrimidin-2-yl]amino]benzonitrile] showed an IC50 of 0.01 to 100 nM.

`Cc1cc(C)cc(Nc2ncc3c(n2)CCN(C2CN(C(=O)c4ccc5[nH]nnc5c4)C2)C3)c1` [compound 2, 1H-benzotriazol-5-yl-[3-[2-(3,5-dimethylanilino)-7,8-dihydro-5H-pyrido[4,3-d]pyrimidin-6-yl]azetidin-1-yl]methanone] had an IC50 of 100 to 500 nM.

Regarding `Cc1cc(C)cc(Nc2ncc3c(n2)CCN(C2CCN(C(=O)c4ccc5[nH]c(=O)oc5c4)C2)C3)c1` (stereo not shown) [compound 4, 6-[3-[2-(3,5-dimethylanilino)-7,8-dihydro-5H-pyrido[4,3-d]pyrimidin-6-yl]pyrrolidine-1-carbonyl]-3H-1,3-benzoxazol-2-one], the 50% inhibitory concentration (IC50) was 0.01 to 100 nM.

For `Cc1cc(C)cc(Nc2ncc3c(n2)CCN(C2CCN(C(=O)c4ccc5[nH]nnc5c4)C2)C3)c1` (stereo not shown) [compound 5, 1H-benzotriazol-5-yl-[3-[2-(3,5-dimethylanilino)-7,8-dihydro-5H-pyrido[4,3-d]pyrimidin-6-yl]pyrrolidin-1-yl]methanone], the 50% inhibitory concentration (IC50) fell in the range of 100 to 500 nM.

Compound `O=C(c1ccc2[nH]c(=O)oc2c1)N1CC(N2Cc3cnc(Nc4cc(C(F)(F)F)cc(C(F)(F)F)c4)nc3C2)C1` [compound 6, 6-[3-[2-[3,5-bis(trifluoromethyl)anilino]-5,7-dihydropyrrolo[3,4-d]pyrimidin-6-yl]azetidine-1-carbonyl]-3H-1,3-benzoxazol-2-one] yielded an IC50 of 0.01 to 100 nM.

Turning to `Cc1cc(C)cc(Nc2ncc3c(n2)CCN(C2CCN(C(=O)c4ccc5[nH]c(=O)oc5c4)CC2)C3)c1` [compound 7, 6-[4-[2-(3,5-dimethylanilino)-7,8-dihydro-5H-pyrido[4,3-d]pyrimidin-6-yl]piperidine-1-carbonyl]-3H-1,3-benzoxazol-2-one], the IC50 fell in the range of 100 to 500 nM.

`O=C(c1ccc2[nH]c(=O)oc2c1)N1CC(N2CCc3nc(Nc4cc(C(F)(F)F)cc(C(F)(F)F)c4)ncc3C2)C1` [compound 8, 6-[3-[2-[3,5-bis(trifluoromethyl)anilino]-7,8-dihydro-5H-pyrido[4,3-d]pyrimidin-6-yl]azetidine-1-carbonyl]-3H-1,3-benzoxazol-2-one]: the IC50 was in the range of 0.01 to 100 nM.

Compound `O=C(c1ccc2[nH]nnc2c1)N1CC(N2Cc3cnc(Nc4cc(C(F)(F)F)cc(C(F)(F)F)c4)nc3C2)C1` [compound 9, 1H-benzotriazol-5-yl-[3-[2-[3,5-bis(trifluoromethyl)anilino]-5,7-dihydropyrrolo[3,4-d]pyrimidin-6-yl]azetidin-1-yl]methanone] gave an IC50 of 0.01 to 100 nM.

As for `Cc1cc(C)cc(Nc2ncc3c(n2)CN(C2CCN(C(=O)c4ccc5[nH]nnc5c4)CC2)C3)c1` [compound 10, 1H-benzotriazol-5-yl-[4-[2-(3,5-dimethylanilino)-5,7-dihydropyrrolo[3,4-d]pyrimidin-6-yl]-1-piperidyl]methanone], the IC50 lay in the range of 0.01 to 100 nM.

The values above are taken from patent EP3782997A1, “FUSED PYRIMIDINE COMPOUNDS AND PHARMACEUTICAL COMPOSITIONS THEREOF FOR THE TREATMENT OF FIBROTIC DISEASES” (Galapagos N.V., priority 2019, dated 2021).
